Values quoted from earlier work as cited in patent publication US20090193593A1, “METHOD FOR REFRESHING FABRIC ARTICLES” (priority 2008, published 2009).
Structures can show the parent of a compound that is named as a salt.

SMILES | Solubility in water
[H]/N=C(\N/C(=N/[H])NCCCCCCNC(=N)NC(=N)Nc1ccc(Cl)cc1)Nc1ccc(Cl)cc1 [chlorhexidine diacetate salt, 1,1′-hexamethylene bis(5-(p-chlorophenyl)biguanide), reference compound] | about 1.8%
[H]/N=C(\N/C(=N/[H])NCCCCCCNC(=N)NC(=N)Nc1ccc(Cl)cc1)Nc1ccc(Cl)cc1 [chlorhexidine digluconate salt, 1,1′-hexamethylene bis(5-(p-chlorophenyl)biguanide), reference compound] | about 70%
OCc1ccccc1 [benzyl alcohol] | about 4%
OCCc1ccccc1 [2-phenylethanol] | about 2%
OCCOc1ccccc1 [2-phenoxyethanol] | about 2.67%
